Laboratory results as given in US6306860A, “2,5-pyridinedicarboxylic acid derivatives” (Dong Wha Pharm. Inc. Co., Ltd., priority 1998, dated 2001).
Structures can show the parent of a compound that is named as a salt.

Columns and labels:
[1] = target: T1, HIV reverse transcriptase (Human immunodeficiency virus type 1 group M subtype B, UniProt P04585); assay: In vitro inhibition test against HIV reverse transcriptase; assay type: biochemical; details: read-out: Inhibitory activity of HIV-RT (%); for inhibition at 0.1 µg/mL: 0.1 μg/ml; for inhibition at 1 µg/mL: 1 μg/ml
T1 construct: purchased Boehringer Mannheim
Method: Experiment 2: The in vitro Inhibition Test Against HIV Reverse Transcriptase
The inhibitory activity in vitro was measured using a non-radioactive reverse transcriptase assay Kit (Boehringer Mannheim).
At first, 20 μl(40 ng) of HIV-RT was added to the wells, coated with streptavidin and with the addition of 20 μl reaction mixture containing template/primer hybrid poly(A)/oligo(dT)15 and DIG-(digoxigenin)-dUTP, biotin-dUTP and TTP, 20 μl of test compound was added and reacted at 37° C. for 1 hour. The control without test compound was used for the comparison of related activity. Since DNA containing nucleotide labeled with digoxigenin and biotine was prepared by the action of HIV-RT, it was combined with streptavidin coated at the bottom of the wells. After the reaction was completed, remaining impurities were removed by washing each well with 250 μl buffer solution (pH 7.0) for 30 seconds 5 times and with the addition of 200 μl anti-DIG-POD antibody, the mixture was reacted at 37° C. for 1 hour. For the removal of remaining impurities again, the reacting solution was washed with a buffer solution and with the addition of 200 μl ABTS™ each, a substrate of POD(peroxidase), the solution was reacted at room temperature for 30 minutes. The absorbance was read by ELISA reader at 405 nm for the assay of reverse transcriptase activity and its inhibition activity.

HBV polymerase = target: T2, HBV polymerase (Hepatitis B virus genotype D subtype ayw, UniProt P03156); assay: Inhibitory activities against HBV polymerase (reverse transcriptase activity) in vitro; assay type: biochemical; details: read-out: Inhibitory activity of HBV-RT (%); for inhibition at 0.01 µg/mL: 0.01 μg/ml; for inhibition at 0.1 µg/mL: 0.1 μg/ml; for inhibition at 1 µg/mL: 1 μg/ml
T2 construct: made in house; host or cells: E. coli
T2 sequence (P03156 whole entry): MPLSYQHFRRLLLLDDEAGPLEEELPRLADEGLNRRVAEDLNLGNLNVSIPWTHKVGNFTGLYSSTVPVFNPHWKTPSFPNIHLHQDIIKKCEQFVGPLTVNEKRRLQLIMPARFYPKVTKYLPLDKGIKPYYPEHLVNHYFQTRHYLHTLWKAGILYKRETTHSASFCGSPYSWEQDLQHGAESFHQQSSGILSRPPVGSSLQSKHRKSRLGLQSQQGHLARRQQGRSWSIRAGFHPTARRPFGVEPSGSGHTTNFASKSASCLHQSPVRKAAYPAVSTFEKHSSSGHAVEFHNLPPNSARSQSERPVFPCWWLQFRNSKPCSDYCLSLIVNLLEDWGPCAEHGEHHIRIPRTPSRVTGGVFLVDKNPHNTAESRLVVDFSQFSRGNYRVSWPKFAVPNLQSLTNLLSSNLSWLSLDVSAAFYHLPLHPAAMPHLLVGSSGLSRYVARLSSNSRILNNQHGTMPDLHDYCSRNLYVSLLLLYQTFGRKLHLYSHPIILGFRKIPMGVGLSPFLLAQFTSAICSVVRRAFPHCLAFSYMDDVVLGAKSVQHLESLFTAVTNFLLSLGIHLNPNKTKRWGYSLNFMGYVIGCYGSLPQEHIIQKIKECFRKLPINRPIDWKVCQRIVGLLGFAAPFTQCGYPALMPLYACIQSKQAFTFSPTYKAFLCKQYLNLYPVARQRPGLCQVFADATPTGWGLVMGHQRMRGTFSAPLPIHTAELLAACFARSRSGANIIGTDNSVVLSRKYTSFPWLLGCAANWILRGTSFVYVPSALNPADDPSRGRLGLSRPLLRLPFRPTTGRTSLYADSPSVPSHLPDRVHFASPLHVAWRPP
Text: Experiment 1:Inhibitory Activities Against HBV Polymerase in vitro
Recently, the inventors of the present invention have produced a recombinant HBV polymerase that is expressed from E.coli transformant, measured its enzyme activity and filed patent applications threrof [Korean Pat. Appl. Nos. 94-3918 and 96-33998].
The inventors have also established a method of measuring the reverse transcriptase activity of HBV polymerase in vitro. The fundamental principle is the same as the ELISA method, and after reacting the substrate with biotin- and DIG-modified nucleotide, a method of recognizing the polymerized substrate as anti-DIG antibody with peroxidase was used.
20 μl of HBV polymerase, 20 μl of reaction mixture and 20 μl of test compound was mixed and reacted at 14° C.~30° C. for 18~24 hours. Then, the inhibitory effect of the test compound against reverse transcriptase activity in the HBV polymerase was examined, compared with the results of control tests without the test compound.

Row | SMILES | inhibition at 0.1 µg/mL [1] | inhibition at 1 µg/mL [1] | inhibition at 0.01 µg/mL (HBV polymerase) | inhibition at 0.1 µg/mL (HBV polymerase) | inhibition at 1 µg/mL (HBV polymerase)
1 | COCCCNC(=O)c1ccc(C(=O)N2CCN(c3ncccc3NCC(C)C)CC2)nc1 [Exam. 47, 2-[1-[3-(isobutylamino)-2-pyridyl]piperazin-4-yl-carbonyl]-5-[N-(3-methoxypropyl)carbamoyl]pyridine] | 53% | 69% | 20% | 51% | 72%
2 | CC(C)Nc1cccnc1N1CCN(C(=O)c2ccc(C(=O)Nc3ccccn3)cn2)CC1 [Exam. 70, 6-[1-[3-(isopropylamino)-2-pyridyl]piperazin-4-yl-carbonyl]-N-(2-pyridyl)nicotinamide] | 55% | 74% | 26% | 55% | 74%
3 | COCCCNC(=O)c1ccc(C(=O)N2CCN(CCO)CC2)nc1 [Exam. 99, 6-[1-(2-hydroxyethyl)piperazin-4-yl-carbonyl]-N-(3-methoxypropyl)nicotinamide] | 65% | 75% | 15% | 60% | 68%
4 | CC(C)Nc1cccnc1N1CCN(C(=O)c2ccc(C(=O)Nc3nncs3)cn2)CC1 [Exam. 69, 6-[1-[3-(isopropylamino)-2-pyridyl]piperazin-4-yl-carbonyl]-N-(1,3,4-thiadiazol-2-yl)nicotinamide] | 35% | 67% | 12% | 47% | 64%
5 | COC(CN(C)C(=O)c1ccc(C(=O)N2CCN(c3ncccc3NC(C)C)CC2)nc1)OC [Exam. 50, 5-[N-(2,2-dimethoxyethyl)-N-methylcarbamoyl]-2-[1-[3-(isopropylamino)-2-pyridyl]piperazin-4-yl-carbonyl]pyridine.HCl] | 40% | 55% | 15% | 51% | 60%
6 | Cc1cc(NC(=O)c2ccc(C(=O)N3CCN(c4ncccc4NC(C)C)CC3)nc2)n[nH]1 [Exam. 66, 6-[1-[3-(isopropylamino)-2-pyridyl]piperazin-4-yl-carbonyl]-N-(5-methyl-1H-pyrazol-3-yl)nicotinamide] | 52% | 76% | 20% | 53% | 70%
7 | CC(C)CNc1cccnc1N1CCN(C(=O)c2ccc(C(=O)NCCCn3ccnc3)cn2)CC1 [Exam. 84, N-[3-(1H-imidazol-1-yl)propyl]-6-[1-[3-(isobutylamino)-2-pyridyl]piperazin-4-yl-carbonyl]nicotinamide] | 50% | 62% | 60% | 72% | 88%
8 | CC(C)Nc1cccnc1N1CCN(C(=O)c2ccc(C(=O)NCc3cccnc3)cn2)CC1 [Exam. 76, 6-[1-[3-(isopropylamino)-2-pyridyl]piperazin-4-yl-carbonyl]-N-(3-pyridylmethyl)nicotinamide] | 57% | 82% | 30% | 53% | 62%
9 | O=C(NCc1ccco1)c1ccc(C(=O)N2CCN(CCO)CC2)nc1 [Exam. 103, N-(2-Furylmethyl)-6-[1-(2-hydroxyethyl)piperazin-4-yl-carbonyl]nicotinamide.HCl] | 65% | 80% | 20% | 54% | 72%
10 | CC(C)Nc1cccnc1N1CCN(C(=O)c2ccc(C(=O)NC3CCSC3=O)cn2)CC1 (stereo not shown) [Exam. 57, 2-[1-[3-(isopropylamino)-2-pyridyl]piperazin-4-yl-carbonyl]-5-[N-(tetrahydro-2-thiophenon-3-yl)carbamoyl]pyridine] | 61% | 70% | 23% | 53% | 72%
11 | CC(C)Nc1cccnc1N1CCN(C(=O)c2ccc(C(=O)N(C)CC3OCCO3)cn2)CC1 [Exam. 52, 5-[N-[(1,3-Dioxolan-2-yl)methyl]-N-methylcarbamoyl]-2-[1-[3-(isopropylamino)-2-pyridyl]piperazin-4-yl-carbonyl]pyridine] | 50% | 62% | 39% | 60% | 76%
12 | CC(C)Nc1cccnc1N1CCN(C(=O)c2ccc(C(=O)NCCc3c[nH]cn3)cn2)CC1 [Exam. 80, N-[2-(1H-imidazol4-yl)ethyl]-6-[1-[3-(isopropylamino)-2-pyridyl]piperazin-4-yl-carbonyl]nicotinamide] | 21% | 48% | 52% | 61% | 70%
13 | CC(C)NC(=O)c1ccc(C(=O)N2CCN(c3ncccc3NC(C)C)CC2)nc1 [Exam. 24, 2-[1-[3-(isopropylamino)-2-pyridyl]piperazin-4-yl-carbonyl]-5-(N-isopropylcarbamoyl)pyridine] | 30% | 66% | 23% | 51% | 65%
14 | CCNc1cccnc1N1CCN(C(=O)c2ccc(C(=O)NCCN3CCOCC3)cn2)CC1 [Exam. 60, 2-[1-[3-(ethylamino)-2-pyridyl]piperazin-4-yl-carbonyl]-5-[N-[2-(morpholin4-yl)ethyl]carbamoyl]pyridine.HCl] | 55% | 73% | 30% | 52% | 66%
15 | CC(C)NC(=O)c1ccc(C(=O)N2CCN(c3ncccc3N)CC2)nc1 [Exam. 27, 2-[1-(3-amino-2-pyridyl)piperazin-4-yl-carbonyl]-5-(N-isopropylcarbamoyl)pyridine] | 54% | 70% | 43% | 62% | 79%
16 | CC(C)Nc1cccnc1N1CCN(C(=O)c2ccc(C(=O)Nc3ncccc3O)cn2)CC1 [Exam. 85, N-(3-hydroxy-2-pyridyl)-6-[1-[3-(isopropylamino)-2-pyridyl]piperazin-4-yl-carbonyl]nicotinamide] | 47% | 70% | 61% | 70% | 88%
17 | CC(C)Nc1cccnc1N1CCN(C(=O)c2ccc(C(=O)NC(C)(C)CO)cn2)CC1 [Exam. 6, 5-[N-(1,1-dimethyl-2-hydroxyethyl)carbamoyl]-2-[1-[3-(isopropylamino)-2-pyridyl]piperazin-4-yl-carbonyl]pyridine] | 48% | 70% | 62% | 65% | 80%
18 | O=C(NCCO)c1ccc(C(=O)N2CCN(CCO)CC2)nc1 [Exam. 93, N-(2-hydroxyethyl)-6-[1-(2-hydroxyethyl)piperazin-4-yl-carbonyl]nicotinamide] | 25% | 50% | 30% | 59% | 73%
19 | CCNc1cccnc1N1CCN(C(=O)c2ccc(C(=O)NCCOC)cn2)CC1 [Exam. 40, 2-[1-[3-(ethylamino)-2-pyridyl]piperazin-4-yl-carbonyl]-5-[N-(2-methoxyethyl)carbamoyl]-pyridine] | 52% | 70% | 36% | 57% | 75%
20 | CC(C)CNc1cccnc1N1CCN(C(=O)c2ccc(C(=O)NC(C)(C)CO)cn2)CC1 [Exam. 23, 5-[N-(1,1-dimethyl-2-hydroxyethyl)carbamoyl]-2-[1-[3-(isobutylamino)-2-pyridyl]piperazin-4-yl-carbonyl]pyridine] | 46% | 62% | 63% | 71% | 90%
